According to patent publication US5086045A, “Antitumor antibiotic” (Bristol-Myers Squibb Company, priority 1990, dated 1992):
≈ marks a conversion by molar mass, not a printed value. Entries after “also recorded” stand apart in the source; their conditions may differ.

Columns and labels:
a variety of bacteria = experiment: Antimicrobial activity, serial two-fold agar dilution, overall; assay type: cell-based
Description: (§1) Antimicrobial activity of BMY-41339 was determined for a variety of bacteria by the serial two-fold agar dilution method.

P388 leukemia = experiment: In vivo antitumor activity, P388 leukemia implanted ip, drug ip; design: species or system mouse
Description: The in vivo antitumor activity of BMY-41339 was determined in the standard P388 mouse leukemia model. A summary of the experiments performed using BMY-41339 is provided below.
DBA/2 and (Balb/c × DBA/2)F1 (CDF1) hybrid mice were purchased from Charles River Breeding Co. (Wilmington, MA). They were provided food and water ad libitum.
The P388 murine ascites leukemia was maintained by weekly in vivo passage in DBA/2 mice.
Esperamicin A1 and BMY-41339 were dissolved in ethanol. Further dilutions were made with 0.9% NaCl (saline) until the ethanol concentration (v/v) was 10%. All administrations were made, therefore, in a 10% ethanol in saline vehicle. For ip injections, the concentration of compound was adjusted according to the average initial body weight of each group of mice to be injected such that the desired dose would be contained in a 0.5 ml injection volume. The same procedure was used for iv compound administration except the injection volume was 0.2 ml.
Antitumor experiments were initiated by implanting […] P388 leukemia cells either ip or iv into CDF1 mice. BMY-41339 and esperamicin A1 (included as a positive reference compound), were injected either ip in mice implanted ip with P388, or iv in mice implanted iv with P388 on Day 2 post-implant only Eight different dose levels of BMY-41339, at two-fold increments, were evaluated in each of the two experiments performed.
A % T/C value of ≥ 125 was considered indicative of activity in these models.

E. coli A9751 = experiment: Antibacterial activity (MIC), serial two-fold agar dilution; assay type: cell-based; details: Escherichia coli
Description: as §1

E. faecalis A20688 = experiment: as above; assay type: cell-based; details: Enterococcus faecalis
Description: as §1

B. subtilis A9506-A = experiment: as above; assay type: cell-based; details: Bacillus subtilis, A9506A
Description: as §1

K. pneumoniae A9664 = experiment: as above; assay type: cell-based; details: Klebsiella pneumoniae
Description: as §1

K. pneumoniae A20468 = experiment: as above; assay type: cell-based; details: Klebsiella pneumoniae
Description: as §1

E. faecalis A25707 = experiment: as above; assay type: cell-based; details: Enterococcus faecalis
Description: as §1

S. aureus A20698 = experiment: as above; assay type: cell-based; details: Staphylococcus aureus
Description: as §1

E. coli A15119 = experiment: as above; assay type: cell-based; details: Escherichia coli
Description: as §1

E. faecalis A25708 = experiment: as above; assay type: cell-based; details: Enterococcus faecalis
Description: as §1

P. aeruginosa A9843 = experiment: as above; assay type: cell-based; details: Pseudomonas aeruginosa
Description: as §1

S. aureus A24407 = experiment: as above; assay type: cell-based; details: Staphylococcus aureus
Description: as §1

E. coli A20697 = experiment: as above; assay type: cell-based; details: Escherichia coli
Description: as §1

P. vulgaris A21559 = experiment: as above; assay type: cell-based; details: Proteus vulgaris
Description: as §1

P. aeruginosa A20235 = experiment: as above; assay type: cell-based; details: Pseudomonas aeruginosa
Description: as §1

P. aeruginosa A21508 = experiment: as above; assay type: cell-based; details: Pseudomonas aeruginosa
Description: as §1

S. aureus A9537 = experiment: as above; assay type: cell-based; details: Staphylococcus aureus
Description: as §1

[1] = Exp. 8102, ip, 0.025 mg/kg/dose
[2] = Exp. 8109, ip, 0.025 mg/kg/dose

## C=C(OC)C(=O)Nc1cc(OC)c(OC)cc1C(=O)OC1CC(OC2C(=O)C(NC(=O)OC)=C3C(=CCSSSSC)C2(O)C#CC=CC#CC3OC2OC(C)C(NOC3CC(O)C(SC)C(C)O3)C(O)C2OC2CC(OC)C(NC(C)C)CO2)OC(C)C1O (stereo not drawn) [BMY-41339]
A variety of bacteria
  antibacterial activity spectrum: broad spectrum of antibacterial activity; also recorded: antimicrobial activity against a broad spectrum of bacteria
P388 leukemia; Exp. 8102, ip, 1.6 μg/kg
  T/C: 145%
P388 leukemia; Exp. 8102, ip, 3.2 μg/kg (highest dose tested)
  T/C: 140%
P388 leukemia; [1]
  % T/C: 110%
  Avg. wt. change on day 6: 0.8 grams
  Survivors on Day 5: 6/6
P388 leukemia; Exp. 8102, ip, 0.05 mg/kg/dose
  % T/C: 110%
  Avg. wt. change on day 6: 1.3 grams
  Survivors on Day 5: 6/6
P388 leukemia; Exp. 8102, ip, 0.1 mg/kg/dose
  % T/C: 120%
  Avg. wt. change on day 6: 0.7 grams
  Survivors on Day 5: 6/6
P388 leukemia; Exp. 8102, ip, 0.2 mg/kg/dose
  % T/C: 140%
  Avg. wt. change on day 6: 0.6 grams
  Survivors on Day 5: 6/6
P388 leukemia; Exp. 8102, ip, 0.4 mg/kg/dose
  % T/C: 135%
  Avg. wt. change on day 6: 0.6 grams
  Survivors on Day 5: 6/6
P388 leukemia; Exp. 8102, ip, 0.8 mg/kg/dose
  % T/C: 140%
  Avg. wt. change on day 6: 0.4 grams
  Survivors on Day 5: 6/6
P388 leukemia; Exp. 8102, ip, 1.6 mg/kg/dose
  % T/C: 145%
  Avg. wt. change on day 6: -0.1 grams
  Survivors on Day 5: 6/6
P388 leukemia; Exp. 8102, ip, 3.2 mg/kg/dose
  % T/C: 140%
  Avg. wt. change on day 6: 0.7 grams
  Survivors on Day 5: 6/6
P388 leukemia; Exp. 8102, ip, single injections above 0.1 μg/kg, Day 2 only
  % T/C: ≥ 135%
P388 leukemia; Exp. 8102, ip, up to 3.2 μg/kg
  overt drug-associated toxicity (e.g. excessive body weight loss, early deaths): no obvious sign of overt drug-associated toxicity
P388 leukemia; [2]
  % T/C: 110%
  Avg. wt. change on day 6: 0.8 grams
  Survivors on Day 5: 6/6
P388 leukemia; Exp. 8109, ip, 32 μg/kg (highest dose tested)
  T/C: 171%
P388 leukemia; Exp. 8109, ip, 0.05 mg/kg/dose
  % T/C: 110%
  Avg. wt. change on day 6: 1.3 grams
  Survivors on Day 5: 6/6
P388 leukemia; Exp. 8109, ip, 0.1 mg/kg/dose
  % T/C: 120%
  Avg. wt. change on day 6: 0.7 grams
  Survivors on Day 5: 6/6
P388 leukemia; Exp. 8109, ip, 0.2 mg/kg/dose
  % T/C: 140%
  Avg. wt. change on day 6: 0.6 grams
  Survivors on Day 5: 6/6
P388 leukemia; Exp. 8109, ip, 0.4 mg/kg/dose
  % T/C: 135%
  Avg. wt. change on day 6: 0.6 grams
  Survivors on Day 5: 6/6
P388 leukemia; Exp. 8109, ip, 0.8 mg/kg/dose
  % T/C: 140%
  Avg. wt. change on day 6: 0.4 grams
  Survivors on Day 5: 6/6
P388 leukemia; Exp. 8109, ip, 1.6 mg/kg/dose
  % T/C: 145%
  Avg. wt. change on day 6: -0.1 grams
  Survivors on Day 5: 6/6
P388 leukemia; Exp. 8109, ip, 3.2 mg/kg/dose
  % T/C: 140%
  Avg. wt. change on day 6: 0.7 grams
  Survivors on Day 5: 6/6
P388 leukemia; Exp. 8109, ip, 0.5 -32 μg/kg
  increases in lifespan: active increases
P388 leukemia; conclusion, confirmed experimental results
  activity against P388 leukemia: active against P388 leukemia
E. coli A9751
  MIC: 0.016 µg/mL (≈ 0.0118 µM)
E. faecalis A20688
  MIC: 0.002 µg/mL (≈ 0.00147 µM)
B. subtilis A9506-A
  MIC: 0.001 µg/mL (≈ 0.000737 µM)
K. pneumoniae A9664
  MIC: 1 µg/mL (≈ 0.737 µM)
K. pneumoniae A20468
  MIC: 1 µg/mL (≈ 0.737 µM)
E. faecalis A25707
  MIC: 0.002 µg/mL (≈ 0.00147 µM)
S. aureus A20698
  MIC: 0.001 µg/mL (≈ 0.000737 µM)
E. coli A15119
  MIC: 0.25 µg/mL (≈ 0.184 µM)
E. faecalis A25708
  MIC: 0.002 µg/mL (≈ 0.00147 µM)
P. aeruginosa A9843
  MIC: 0.25 µg/mL (≈ 0.184 µM)
S. aureus A24407
  MIC: 0.001 µg/mL (≈ 0.000737 µM)
E. coli A20697
  MIC: 0.25 µg/mL (≈ 0.184 µM)
P. vulgaris A21559
  MIC: 0.13 µg/mL (≈ 0.0958 µM)
P. aeruginosa A20235
  MIC: 0.13 µg/mL (≈ 0.0958 µM)
P. aeruginosa A21508
  MIC: 0.25 µg/mL (≈ 0.184 µM)
S. aureus A9537
  MIC: 0.001 µg/mL (≈ 0.000737 µM)
